Earlier results in patent publication US11839619B2, “Methods for treatment of pediatric systemic mastocytosis” (The Regents of the University of California, priority 2019, dated 2023).

Details: in vivo

Compound: CO[C@@H]1[C@H](N(C)C(=O)c2ccccc2)C[C@H]2O[C@]1(C)n1c3ccccc3c3c4c(c5c6ccccc6n2c5c31)C(=O)NC4 [midostaurin]
- common side effects: nausea, vomiting, diarrhea, and thrombocytopenia
